# Where a SMILES comes first, the peptide text is derived from it. [ ]: non-standard residue; d: D form. Cit = NC(=O)NCCC[C@H](N)C(=O)O
# Test system: B16 tumour cells
# Test: Tumour challenge, B16 in C57BL/6 mice
# Format: in vivo, mouse
# Settings: immunised tumour bearing C57BL/6 mice
# Method: C57BL/6 were challenged with B16 tumour (parental non-transfected cell line). Four days later the C57BL/6 mice were immunised with Cyk8 8-26 cit peptide. Overall survival (A), tumour volume (B) at day 13 and tumour volume throughout the study (C), post tumour implant are shown for unimmunised control mice and mice immunised with Cyk8 8-26 cit peptide. Statistical differences between immunised and control mice were determined by Mantel-Cox test, p values are shown. The tumour volume medians and p values are shown as determined by Mann Whitney U test, n=10 in all group.
# For tumour challenge experiments, mice were challenged with 1×10^5 B16 HHDII/iDP4 cells subcutaneously on the right flank […] before primary immunisation (unless stated otherwise) and then immunised as described above. Tumour growth was monitored at 3-4 days intervals and mice humanely euthanised once tumour reached ≥10 mm in diameter.
# The effect of immunisation with Cyk8 8-26 cit on the growth of the mouse B16 melanoma cell line was assessed in C57BL/6. Mice were challenged with B16 tumour cells 3 days prior to immunisation with Cyk8 8-26 cit.
smiles,measurement,value
"CC(C)[C@H](NC(=O)[C@H](CCCCN)NC(=O)[C@H](Cc1ccc(O)cc1)NC(=O)[C@H](CO)NC(=O)[C@@H](N)CCCCN)C(=O)N[C@@H](CO)C(=O)N[C@H](C(=O)N[C@@H](CO)C(=O)NCC(=O)N1CCC[C@H]1C(=O)N[C@@H](CCCNC(N)=O)C(=O)N[C@@H](C)C(=O)N[C@@H](Cc1ccccc1)C(=O)N[C@@H](CO)C(=O)N[C@@H](CO)C(=O)N[C@@H](CCCNC(N)=O)C(=O)N[C@@H](CO)C(=O)N[C@@H](Cc1ccc(O)cc1)C(=O)N[C@H](C(=O)O)[C@@H](C)O)[C@@H](C)O [Cyk8 8-26 cit, KSYKVSTSGP-cit-AFSS-cit-SYT] (H-KSYKVSTSGP[Cit]AFSS[Cit]SYT-OH)",associated toxicity,no associated toxicity

# From patent US20250269000A1, “ANTI-TUMOUR RESPONSES TO CYTOKERATINS” (SCANCELL LIMITED, priority 2020, published 2025)
